Experimental data from ChEMBL document CHEMBL3244164, “Synthesis and analgesic activity of 1,3-dihydro-3-(substituted phenyl)imidazo[4,5-b]pyridin-2-ones and 3-(substituted phenyl)-1,2,3-triazolo[4,5-b]pyridines” (J Med Chem, 1978).
The source made the active and inactive calls.

Tests used:
Rattus norvegicus [1] = experiment: Analgesic activity in Sprague-Dawley rat normal foot assessed as response threshold at 32 mg/kg, po; assay type: functional
Rattus norvegicus [2] = experiment: Analgesic activity in Sprague-Dawley rat normal foot assessed as response threshold at 8 to 16 mg/kg, po; assay type: functional; conditions: dose mg/kg 8-16
Rattus norvegicus [3] = experiment: Analgesic activity in Sprague-Dawley rat brewer's yeast treated foot assessed as response threshold at 8 mg/kg, po; assay type: functional
Rattus norvegicus [4] = experiment: Analgesic activity in Sprague-Dawley rat brewer's yeast treated foot assessed as response threshold at 16 to 32 mg/kg, po; assay type: functional; conditions: dose mg/kg 16-32
Rattus norvegicus [5] = experiment: Antiarthritic activity in Lewis rat assessed as inhibition of adjuvant-induced paw swelling at 50 mg/kg, po qd for 13 days measured on day 14; assay type: functional
Rattus norvegicus [6] = experiment: Antiinflammatory activity in Sprague-Dawley rat assessed as inhibition of carrageenan-induced paw edema at 30 mg/kg, po; assay type: functional
Rattus norvegicus [7] = experiment: Analgesic activity in Sprague-Dawley rat brewer's yeast treated foot assessed as response threshold at 8 to 16 mg/kg, po; assay type: functional; conditions: dose mg/kg 8-16
Rattus norvegicus [8] = experiment: Analgesic activity in Sprague-Dawley rat normal foot assessed as response threshold at 16 to 32 mg/kg, po; assay type: functional; conditions: dose mg/kg 16-32
Rattus norvegicus [9] = experiment: Analgesic activity in Sprague-Dawley rat assessed as increase in mean reaction time at 20 mg/kg, po after 3 hrs relative to control; assay type: functional
Rattus norvegicus [10] = experiment: Analgesic activity in Sprague-Dawley rat assessed as increase in mean reaction time at 5 mg/kg, po after 2 hrs relative to control; assay type: functional
Rattus norvegicus [11] = experiment: Analgesic activity in Sprague-Dawley rat assessed as increase in mean reaction time at 10 mg/kg, po after 5 hrs relative to control; assay type: functional
Rattus norvegicus [12] = experiment: Analgesic activity in Sprague-Dawley rat assessed as increase in mean reaction time at 20 mg/kg, po after 5 hrs relative to control; assay type: functional
Rattus norvegicus [13] = experiment: Analgesic activity in Sprague-Dawley rat assessed as increase in mean reaction time at 10 mg/kg, po after 2 hrs relative to control; assay type: functional
Rattus norvegicus [14] = experiment: Analgesic activity in Sprague-Dawley rat assessed as increase in mean reaction time at 20 mg/kg, po after 4 hrs relative to control; assay type: functional
Rattus norvegicus [15] = experiment: Analgesic activity in Sprague-Dawley rat assessed as increase in mean reaction time at 5 mg/kg, po after 4 hrs relative to control; assay type: functional
Rattus norvegicus [16] = experiment: Analgesic activity in Sprague-Dawley rat assessed as increase in mean reaction time at 10 mg/kg, po after 4 hrs relative to control; assay type: functional
Rattus norvegicus [17] = experiment: Analgesic activity in Sprague-Dawley rat assessed as increase in mean reaction time at 20 mg/kg, po after 2 hrs relative to control; assay type: functional
Rattus norvegicus [18] = experiment: Analgesic activity in Sprague-Dawley rat assessed as increase in mean reaction time at 5 mg/kg, po after 3 hrs relative to control; assay type: functional
Mus musculus [19] = experiment: Analgesic activity in naloxone treated mouse assessed as withdrawal latency at 12.5 to 75 mg/kg, po; assay type: functional, organism-based
Rattus norvegicus [20] = experiment: Analgesic activity in Sprague-Dawley rat assessed as increase in mean reaction time at 10 mg/kg, po after 1 hr relative to control; assay type: functional
Rattus norvegicus [21] = experiment: Analgesic activity in Sprague-Dawley rat assessed as increase in mean reaction time at 5 mg/kg, po after 5 hrs relative to control; assay type: functional
Rattus norvegicus [22] = experiment: Analgesic activity in Sprague-Dawley rat assessed as increase in mean reaction time at 20 mg/kg, po after 1 hr relative to control; assay type: functional
Rattus norvegicus [23] = experiment: Analgesic activity in Sprague-Dawley rat assessed as increase in mean reaction time at 10 mg/kg, po after 3 hrs relative to control; assay type: functional
Rattus norvegicus [24] = experiment: Analgesic activity in Sprague-Dawley rat assessed as increase in mean reaction time at 5 mg/kg, po after 1 hr relative to control; assay type: functional
Mus musculus [25] = experiment: Analgesic activity in mouse assessed as withdrawal latency at 12.5 to 75 mg/kg, po by Haffner tail clamp method; assay type: functional, organism-based
Rattus norvegicus [26] = experiment: Analgesic activity in Sprague-Dawley rat brewer's yeast treated foot assessed as response threshold at 32 mg/kg, po; assay type: functional

## CN1CC[C@]23c4c5ccc(O)c4O[C@H]2[C@@H](O)C=C[C@H]3[C@H]1C5 [MORPHINE]
Rattus norvegicus [1]
  Activity: <40 mm
Rattus norvegicus [2]
  Activity: >50 mm
Rattus norvegicus [3]
  Activity: >34 mm

## Cn1c(=O)n(-c2ccc3c(c2)OCO3)c2ncccc21
Rattus norvegicus [2]
  Activity: >50 mm
Rattus norvegicus [4]
  Activity: >25 mm

## CCCCC1C(=O)N(c2ccccc2)N(c2ccccc2)C1=O [PHENYLBUTAZONE]
Rattus norvegicus [5]
  inhibition in vivo at 50 mg/kg: 78%
Rattus norvegicus [6]
  inhibition in vivo at 30 mg/kg: 39%

## Fc1ccccc1-n1nnc2cccnc21
Rattus norvegicus [1]
  Activity: <40 mm
Rattus norvegicus [7]
  Activity: >25 mm

## CCCn1c(=O)n(-c2ccccc2)c2ncccc21
Rattus norvegicus [1]
  Activity: 40 mm
Rattus norvegicus [4]
  Activity: >25 mm

## Fc1ccc(-n2nnc3cccnc32)c(F)c1
Rattus norvegicus [8]
  Activity: >40 mm
Rattus norvegicus [7]
  Activity: >25 mm

## CCn1c(=O)n(-c2ccc3c(c2)OCO3)c2ncccc21
Rattus norvegicus [1]
  Activity: <40 mm
Rattus norvegicus [4]
  Activity: >25 mm

## O=c1n(CC2CC2)c2cccnc2n1-c1ccc2c(c1)OCO2
Rattus norvegicus [8]
  Activity: >40 mm
Rattus norvegicus [4]
  Activity: >25 mm

## O=c1[nH]c2cccnc2n1-c1ccccc1
Rattus norvegicus [1]
  Activity: 40 mm
Rattus norvegicus [7]
  Activity: >25 mm

## O=c1n(CO)c2cccnc2n1-c1ccc2c(c1)OCO2
Rattus norvegicus [1]
  Activity: 40 mm
Rattus norvegicus [4]
  Activity: >25 mm

## CC(C)(C)Oc1nc2cccnc2n1-c1ccc2c(c1)OCO2
Rattus norvegicus [1]
  Activity: <40 mm
Rattus norvegicus [7]
  Activity: >25 mm

## Nc1ccc(-n2c(=O)[nH]c3cccnc32)cc1
Rattus norvegicus [1]
  Activity: <40 mm
Rattus norvegicus [4]
  Activity: >25 mm

## Cc1ccc(-n2c(=O)[nH]c3cccnc32)cc1
Rattus norvegicus [8]
  Activity: >40 mm
Rattus norvegicus [4]
  Activity: >25 mm

## C=C(Cl)Cn1c(=O)n(-c2ccc3c(c2)OCO3)c2ncccc21
Rattus norvegicus [8]
  Activity: >40 mm
Rattus norvegicus [4]
  Activity: >25 mm

## Cc1ccc(-n2c(=O)[nH]c3cccnc32)c(C)c1
Rattus norvegicus [1]
  Activity: <40 mm
Rattus norvegicus [4]
  Activity: >25 mm

## COc1ccc2c3c1O[C@H]1[C@@H](O)C=C[C@H]4[C@@H](C2)N(C)CC[C@@]341 [CODEINE]
Rattus norvegicus [8]
  Activity: >40 mm
Rattus norvegicus [7]
  Activity: >25 mm

## CC(C)n1c(=O)n(-c2ccc3c(c2)OCO3)c2ncccc21
Rattus norvegicus [2]
  Activity: >50 mm
Rattus norvegicus [3]
  Activity: >34 mm

## CC(C)(C)n1c(=O)n(-c2ccc3c(c2)OCO3)c2ncccc21
Rattus norvegicus [8]
  Activity: >40 mm
Rattus norvegicus [4]
  Activity: >25 mm

## CC(C)Cn1c(=O)n(-c2ccc3c(c2)OCO3)c2ncccc21
Rattus norvegicus [1]
  Activity: <40 mm
Rattus norvegicus [4]
  Activity: >25 mm

## O=c1[nH]c2cccnc2n1-c1ccccc1Cl
Rattus norvegicus [1]
  Activity: <40 mm
Rattus norvegicus [4]
  Activity: >25 mm

## O=c1[nH]c2cccnc2n1-c1ccc2c(c1)OCO2
Rattus norvegicus [9]
  Time: 20.4 s
Rattus norvegicus [10]
  Time: 2.1 s
Rattus norvegicus [11]
  Time: -0.2 s
Rattus norvegicus [2]
  Activity: >50 mm
Rattus norvegicus [12]
  Time: 18.3 s
Rattus norvegicus [5]
  inhibition in vivo at 50 mg/kg: 68.3%
Rattus norvegicus [13]
  Time: 3.9 s
Rattus norvegicus [14]
  Time: 20 s
Rattus norvegicus [15]
  Time: 1.3 s
Rattus norvegicus [6]
  inhibition in vivo at 30 mg/kg: 37%
Rattus norvegicus [16]
  Time: 2.3 s
Rattus norvegicus [17]
  Time: 15 s
Rattus norvegicus [18]
  Time: -0.1 s
Mus musculus [19]
  Activity: inactive
Rattus norvegicus [20]
  Time: 2 s
Rattus norvegicus [3]
  Activity: >34 mm
Rattus norvegicus [21]
  Time: 0.4 s
Rattus norvegicus [22]
  Time: 6 s
Rattus norvegicus [23]
  Time: 2.8 s
Rattus norvegicus [24]
  Time: 1.5 s
Mus musculus [25]
  Activity: Active

## O=c1n(CCO)c2cccnc2n1-c1ccc2c(c1)OCO2
Rattus norvegicus [8]
  Activity: >40 mm
Rattus norvegicus [7]
  Activity: >25 mm

## Fc1ccc(F)c(-n2nnc3cccnc32)c1
Rattus norvegicus [1]
  Activity: <40 mm
Rattus norvegicus [4]
  Activity: >25 mm

## CC(O)Cn1c(=O)n(-c2ccc3c(c2)OCO3)c2ncccc21 (stereo unspecified)
Rattus norvegicus [1]
  Activity: 40 mm
Rattus norvegicus [4]
  Activity: >25 mm

## C=CCn1c(=O)n(-c2ccc3c(c2)OCO3)c2ncccc21
Mus musculus [19]
  Activity: inactive
Mus musculus [25]
  Activity: Active

## O=c1n(-c2ccc3c(c2)OCO3)c2ncccc2n1C1CCCC1
Rattus norvegicus [8]
  Activity: >40 mm
Rattus norvegicus [7]
  Activity: >25 mm

## CCCn1c(=O)n(-c2ccc3c(c2)OCO3)c2ncccc21
Rattus norvegicus [2]
  Activity: >50 mm
Rattus norvegicus [7]
  Activity: >25 mm

## O=c1[nH]c2cccnc2n1-c1cccc(F)c1
Rattus norvegicus [1]
  Activity: <40 mm
Rattus norvegicus [26]
  Activity: <25 mm

## O=c1[nH]c2cccnc2n1-c1ccc(F)cc1F
Rattus norvegicus [1]
  Activity: <40 mm
Rattus norvegicus [26]
  Activity: 25 mm

## c1cnc2c(c1)nnn2-c1ccc2c(c1)OCCO2
Rattus norvegicus [1]
  Activity: <40 mm
Rattus norvegicus [4]
  Activity: >25 mm

## c1ccc(-n2nnc3cccnc32)cc1
Rattus norvegicus [1]
  Activity: <40 mm
Rattus norvegicus [26]
  Activity: <25 mm

## O=c1n(CCc2ccccc2)c2cccnc2n1-c1ccc2c(c1)OCO2
Rattus norvegicus [1]
  Activity: <40 mm
Rattus norvegicus [26]
  Activity: <25 mm

## c1ccc(Oc2ccc(-n3nnc4cccnc43)cc2)cc1
Rattus norvegicus [1]
  Activity: <40 mm
Rattus norvegicus [26]
  Activity: <25 mm

## COC(=O)c1cnc2c(c1)[nH]c(=O)n2-c1ccc2c(c1)OCO2
Rattus norvegicus [1]
  Activity: <40 mm
Rattus norvegicus [26]
  Activity: <25 mm

## Clc1ccc(-n2nnc3cccnc32)c(Cl)c1
Rattus norvegicus [1]
  Activity: 40 mm
Rattus norvegicus [26]
  Activity: <25 mm

## O=C(O)Cn1c(=O)n(-c2ccc3c(c2)OCO3)c2ncccc21
Rattus norvegicus [1]
  Activity: <40 mm
Rattus norvegicus [26]
  Activity: <25 mm

## O=c1[nH]c2ccccc2n1-c1ccc2c(c1)OCO2
Rattus norvegicus [1]
  Activity: <40 mm
Rattus norvegicus [26]
  Activity: <25 mm

## C=CCSc1nc2cccnc2n1-c1ccc2c(c1)OCO2
Rattus norvegicus [1]
  Activity: <40 mm
Rattus norvegicus [26]
  Activity: <25 mm
